Measured values as given in ChEMBL document CHEMBL4265956, “Discovery of potent and selective Spleen Tyrosine Kinase inhibitors for the topical treatment of inflammatory skin disease” (Bioorg Med Chem Lett, 2018).

Experiments:
physchem = conditions: buffer, pH 7.4
[1] = Apparent permeability of the compound after 3 hrs by PAMPA; format: ADME
[2] = Drug uptake in human skin epidermal layer administered topically after 6 hrs by LC-MS/MS analysis; format: ADME, tissue-based, Skin epidermis; conditions: topical_or_ocular
[3] = Drug uptake in human skin dermal layer administered topically after 6 hrs by LC-MS/MS analysis; format: ADME, tissue-based, Dermis; conditions: topical_or_ocular
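Wherever logD is given: lipophilicity determined by HPLC.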

logD (physchem)	SMILES	other results
4.5	COc1ccc(-c2cc(C(C)=O)ccc2OCc2ncccn2)cc1	–
5.5	COc1ccc(-c2nc(C)ccc2OCc2ccc(C)cn2)cc1	–
6	COc1ccc(-c2cc(OC)ccc2OCc2ccccn2)cc1	–
5.4	COc1ccc(-c2nc(C)ccc2OCc2cc(C)ccn2)cc1	Papp at 3 h [1]: 33 ×10⁻⁶ cm/s
5.3	COc1ccc(-c2cc(C(C)=O)ccc2OCc2ccccn2)cc1	–
1.9	CNC(=O)c1ccc(OCc2cc(C)ccn2)c(-c2ccc3c(c2)CCNCC3)c1	–
2.7	CCOc1ccnc(COc2ccc(C(C)=O)cc2-c2ccc3c(c2)CCNCC3)c1	–
4.7	COc1ccc(-c2cc(C(C)=O)ccc2OCc2cnccn2)cc1	–
6.1	CC(=O)c1ccc(OCc2ccccn2)c(-c2ccc(C)cc2)c1	–
2.1	CC(=O)c1ccc(OCc2ccccn2)c(-c2ccc3c(c2)CNC3)c1	–
3.1	COc1cccc(OCc2cc(C)ccn2)c1-c1ccc2c(c1)CCNCC2	Drug uptake [2]: 9.34 µg; Drug uptake [3]: 0.38 µg
6.2	COc1ccc(-c2c(F)cccc2OCc2ccccn2)cc1	–
5.8	COc1ccc(-c2c(OC)cccc2OCc2ccccn2)cc1	–
2.3	CC(=O)c1ccc(OCc2ccccn2)c(-c2ccc3c(c2)CCCNC3)c1	–
2.8	Cc1ccnc(COc2ccc(C#N)cc2-c2ccc3c(c2)CCNCC3)c1	–
5	CC(=O)c1ccc(OCc2ccccn2)c(-c2ccccc2)c1	–

More lines, now with the values behind:

SMILES	logD (physchem)	other results
COc1cccc(-c2cc(C(C)=O)ccc2OCc2ccccn2)c1	5.4	–
COc1cccc(OCc2cnccn2)c1-c1ccc2c(c1)CCNCC2	2.2	–
CC(=O)c1ccc(OCc2ccccn2)c(-c2ccc(CCN)cc2)c1	2.1	–
COc1ccc(-c2nc(C)ccc2OCc2ccccn2)cc1	5	–
COc1ccc(-c2cc(C)ccc2OCc2ccccn2)cc1	6.8	–
CC(=O)c1ccc(OCc2ccccn2)c(-c2ccc3c(c2)CNCC3)c1	2.2	–
COc1ccc(-c2cc(F)ccc2OCc2ccccn2)cc1	6.4	–
CC(=O)c1ccc(OCc2ccccn2)c(-c2ccc3c(c2)CCNCC3)c1	2.3	–
COc1ccc(-c2cc(C(C)=O)ccc2OCc2ccncn2)cc1	4.5	–
COc1ccc(OCc2cc(C)ccn2)c(-c2ccc3c(c2)CCNCC3)c1	3	–
CC(=O)c1ccc(OCc2ccccn2)c(-c2ccc3c(c2)CCNC3)c1	2.1	–
CCc1ccnc(COc2ccc(C(C)=O)cc2-c2ccc3c(c2)CCNCC3)c1	2.8	–
COc1ccc(-c2ccc(OC)cc2OCc2ccccn2)cc1	6.2	–
COc1ccc(-c2ccccc2OCc2ccccn2)cc1	6.2	–
COc1ccc(-c2nc(C)ccc2OCc2cccc(C)n2)cc1	5.5	–
Cc1ccc(-c2ncccc2OCc2ccccn2)cc1	4.9	–
CC(=O)c1ccc(OCc2ccccn2)c(-c2ccc(CN)cc2)c1	1.9	–
CC(=O)c1ccc(OCc2cc(C)ccn2)c(-c2ccc3c(c2)CCNCC3)c1	2.5	Drug uptake [2]: 5.52 µg; Drug uptake [3]: 0.43 µg
CC(=O)c1ccc(OCc2ccccn2)c(-c2cccc(C)c2)c1	6	–
COc1ccc(-c2ccc(F)cc2OCc2ccccn2)cc1	6.6	–
COc1ccc(-c2cc(C(C)=O)ccc2OCc2cccnn2)cc1	4.1	–
COc1ccc(-c2nc(C)ccc2OCc2ncccc2C)cc1	5.3	–
COc1ccc(-c2ccc3c(c2)CCNCC3)c(OCc2cc(C)ccn2)c1	3	–
CC(=O)c1ccc(OCc2ccccn2)c(-c2ccc3c(c2)CNCCC3)c1	2.3	–
COc1ccc(-c2c(C)cccc2OCc2ccccn2)cc1	6.7	–
CC(=O)c1ccc(OCc2ccccn2)c(-c2ccc(F)cc2)c1	5.6	–
Cc1ccnc(COc2ccc(C)nc2-c2ccc3c(c2)CCNCC3)c1	–	Papp at 3 h [1]: 43.5 ×10⁻⁶ cm/s
Cc1ccc(-c2ccccc2OCc2ccccn2)cc1	7	–
